From patent publication US10111437B2, “Substituted guanidines as fungicides” (Nippon Soda Co., Ltd., priority 2015, dated 2018)

Legend:
[1] = test system: Apple scab fungus (Venturia inaequalis); assay: Apple scab control test (foliar spray on apple seedlings); assay type: in vivo; conditions: 125 ppm active ingredient, sprayed on apple seedlings (variety Orin) before inoculation, vs untreated
Experimental: The dilution was sprayed to apple seedlings (variety “Orin”, 3 to 4 leaf stage) grown in clay pots. […] The control value was calculated by the following equation. [formula]

[2] = test system: cucumber gray mold fungus (Botrytis cinerea); assay: Cucumber gray mold control test (foliar spray on cucumber seedlings); conditions: in Cucumis sativus, 96 h, read-out: control value
[3] = test system: wheat leaf rust fungus (Puccinia recondita); assay: Wheat leaf rust control test (foliar spray on wheat seedlings); assay type: in vivo; conditions: 240 h, 125 ppm active ingredient, sprayed on wheat seedlings (variety Norin 61) before inoculation, 10 days, vs untreated
[4] = test system: Tomato late blight fungus (Phytophthora infestans); assay: whole plant or invertebrate; assay type: in vivo; conditions: foliar, 96 h, read-out: control value

Structure (SMILES) | pest or weed control at 125 ppm [1] [%] | pest or weed control at 125 ppm [2] [%] | pest or weed control at 125 ppm [3] [%] | pest or weed control at 125 ppm [4] [%]
N=C(N)NCCCCCCCNC(=N)NCCOCc1ccc(C2=NCCCN2)cc1 [compound 238] | ≥ 75 | ≥ 75 | ≥ 75 | –
CNC(=N)c1ccc(OCCCn2ccn(CCCOc3ccc(C(=N)NC)cc3)c2=N)cc1 [compound 116] | ≥ 75 | ≥ 75 | – | ≥ 75
N=C(N)NCCCCCCCCNC(=N)NCCOc1ccc(C(=N)N)cc1 [compound 232] | ≥ 75 | – | – | ≥ 75
N=C(N)NCCCCCCCCNC(=N)NCCCSc1ccc(C(=N)N)cc1 [compound 198] | ≥ 75 | ≥ 75 | – | ≥ 75
N=C(N)NCCCCCNC(=N)NCCCCOc1ccc(C(=N)N)cc1 [compound 59] | ≥ 75 | ≥ 75 | ≥ 75 | –
CNCCNC(=N)c1ccc(OCCCn2ccn(CCCOc3ccc(C(=N)N)cc3)c2=N)cc1 [compound 101] | ≥ 75 | ≥ 75 | – | ≥ 75
N=C(N)c1ccc(SCCCn2ccn(CCCSc3ccc(C(=N)N)cc3)c2=N)cc1 [compound 181] | ≥ 75 | ≥ 75 | – | ≥ 75
N=C(N)NCCCCCCCCNC(=N)NCCOc1ccc(C(=N)N)cc1 [compound 286] | – | ≥ 75 | ≥ 75 | –
N=C(N)NCCCCCCCNC(=N)NCCOc1ccc2cc(C3=NCCCN3)ccc2c1 [compound 290] | ≥ 75 | – | – | ≥ 75
N=C(N)c1ccc(OCCCn2ccn(CCCOc3ccc(C(=N)N)cc3Br)c2=N)c(Br)c1 [compound 54, 3-bromo-4-[3-[3-[3-(2-bromo-4-carbamimidoyl-phenoxy)propyl]-2-imino-imidazol-1-yl]propoxy]benzamidine] | – | ≥ 75 | – | ≥ 75
Cc1cc(C(=N)N)ccc1OCCCCNC(=N)NCCCCOc1ccc(C(=N)N)cc1C [compound 84] | ≥ 75 | ≥ 75 | – | ≥ 75
N=C(N)NCCCCCCCNC(=N)NCCCOc1ccc(C2=NCCCN2)cc1 [compound 190] | ≥ 75 | ≥ 75 | – | ≥ 75
N=C(N)NCCCCCCNC(=N)NCCCOc1ccc(C(=N)N)cc1 [compound 134] | ≥ 75 | ≥ 75 | – | ≥ 75
N=C(N)c1ccc(OCCCCCn2ccn(CCCCCOc3ccc(C(=N)N)cc3)c2=N)cc1 [compound 88] | ≥ 75 | ≥ 75 | – | ≥ 75
C/N=C(/NCCCOc1ccc(C(=N)N)cc1)N(C)CCCOc1ccc(C(=N)N)cc1 [compound 138] | ≥ 75 | ≥ 75 | – | ≥ 75
N=C(N)NCCCCCCCCn1ccn(CCCCOc2ccc(C3=NCCCN3)cc2)c1=N [compound 210] | ≥ 75 | ≥ 75 | – | ≥ 75
N=C(N)c1ccc(OCCCCn2c(=N)n(CCCCOc3ccc(C(=N)N)cc3)c3ccccc32)cc1 [compound 27, 4-[4-[3-[4-(4-carbamimidoylphenoxy)butyl]-2-imino-benzimidazol-1-yl]butoxy]benzamidine] | ≥ 75 | ≥ 75 | – | ≥ 75
N=C(N)c1ccc(OCCCN2CCN(CCCOc3ccc(C(=N)N)cc3)C2=N)cc1 [compound 2, 4-[3-[3-[3-(4-carbamimidoylphenoxy)propyl]-2-imino-imidazolidin-1-yl]propoxy]benzamidine] | ≥ 75 | ≥ 75 | – | ≥ 75
N=C(NCCCOc1ccc(C(=N)N)c(F)c1)NCCCOc1ccc(C(=N)N)c(F)c1 [compound 82] | ≥ 75 | ≥ 75 | – | ≥ 75
N=C(N)c1ccc(OCCCCCn2ccn(CCOc3ccc(C(=N)N)cc3)c2=N)cc1 [compound 93] | ≥ 75 | ≥ 75 | – | ≥ 75
N=C(NCCCc1cc2cc(C(=N)N)ccc2o1)NCCCc1cc2cc(C(=N)N)ccc2o1 [compound 80] | ≥ 75 | ≥ 75 | – | ≥ 75
N=c1n(CCCOc2ccc(C3=NCCCN3)cc2)ccn1CCCOc1ccc(C2=NCCCN2)cc1 [compound 76] | ≥ 75 | ≥ 75 | – | ≥ 75

Structure (SMILES) | pest or weed control at 125 ppm [1] [%] | pest or weed control at 125 ppm [2] [%] | pest or weed control at 125 ppm [3] [%] | pest or weed control at 125 ppm [4] [%]
N=C(N)c1ccc(OCCCn2cc(-c3ccccc3)n(CCCOc3ccc(C(=N)N)cc3)c2=N)cc1 [compound 149] | ≥ 75 | ≥ 75 | – | ≥ 75
N=C(NCCCCCc1nc(C(=N)N)cs1)NCCCOc1ccc(C(=N)N)cc1 [compound 91] | ≥ 75 | ≥ 75 | – | ≥ 75
N=C(N)NCCCCCCCCNC(=N)NCCCOCc1ccc(C2=NCCCN2)cn1 [compound 250] | ≥ 75 | ≥ 75 | – | ≥ 75
N=C(N)NCCCCCCCNC(=N)NCCCCOc1ccc(C(=N)N)cc1 [compound 30, 4-[4-[[N-(7-guanidinoheptyl)carbamimidoyl]amino]butoxy]benzamidine] | ≥ 75 | ≥ 75 | – | ≥ 75
CNC(=N)c1ccc(OCCCCn2ccn(CCCCOc3ccc(C(=N)NC)cc3)c2=N)cc1 [compound 118] | ≥ 75 | ≥ 75 | – | ≥ 75
N=C(N)NCCCCCCCNC(=N)NCCCOc1ccc(C(=N)N)nn1 [compound 44, 6-(3-(3-(7-guanidinoheptyl)guanidino)propoxy) pyridazine-3-carboxamidine] | ≥ 75 | ≥ 75 | – | ≥ 75
N=C(N)NCCCCCCCCCn1ccn(CCCCOc2ccc(C3=NCCCN3)cc2)c1=N [compound 212] | ≥ 75 | ≥ 75 | – | ≥ 75
N=C(NCCCCOc1ccc(C(=N)N)cc1)NCCCc1cc2cc(C(=N)N)ccc2o1 [compound 196] | ≥ 75 | ≥ 75 | – | ≥ 75
N=C(N)NCCCCCCCn1ccn(CCCCOc2ccc(C3=NCCCN3)cc2)c1=N [compound 208] | ≥ 75 | ≥ 75 | – | ≥ 75
N=C(NCCCCOc1ccc(C(=N)N)cc1Cl)NCCCCOc1ccc(C(=N)N)cc1Cl [compound 86] | ≥ 75 | ≥ 75 | – | ≥ 75
N=C(N)c1ccc(OCCCn2ccn(CCCOc3ccc(C(=N)N)cc3Cl)c2=N)c(Cl)c1 [compound 99] | ≥ 75 | ≥ 75 | – | ≥ 75
N=C(N)NCCCCCCCNC(=N)NCCCOCc1ccc(C2=NCCCN2)cc1 [compound 224] | ≥ 75 | ≥ 75 | – | ≥ 75
N=C(NCC#Cc1ccc(C(=N)N)cc1)NCC#Cc1ccc(C(=N)N)cc1 [compound 155] | ≥ 75 | ≥ 75 | – | ≥ 75
N=C(N)c1ccc(OCCCCn2ccn(CCCCOc3ccc(C(=N)N)cc3)c2=N)cc1 [compound 36, 4-[4-[3-[4-(4-carbamimidoylphenoxy)butyl]-2-imino-imidazol-1-yl]butoxy]benzamidine] | ≥ 75 | ≥ 75 | – | ≥ 75
N=C(N)NCCCCCCCNC(=N)NCCCCOc1ccc(C(=N)N)cc1 [compound 16, 4-[4-[[N-(7-guanidinoheptyl)carbamimidoyl]amino]butoxy]benzamidine] | – | – | ≥ 75 | –
N=C(N)c1ccc(OCCCCn2ccn(CCCCOc3ccc(C4=NCCCN4)cc3)c2=N)cc1 [compound 214] | ≥ 75 | ≥ 75 | – | ≥ 75
Cc1c(C)n(CCCCOc2ccc(C(=N)N)cc2)c(=N)n1CCCCOc1ccc(C(=N)N)cc1 [compound 105] | ≥ 75 | ≥ 75 | – | ≥ 75
N=C(N)NCCCCCNC(=N)NCCCOc1ccc(C(=N)N)cc1 [compound 132] | ≥ 75 | ≥ 75 | – | ≥ 75
CNCCNC(=N)NCCCCCCCCNC(=N)NCCCCOc1ccc(C(=N)N)cc1 [compound 147] | ≥ 75 | ≥ 75 | – | ≥ 75
N=C(N)c1ccc(COCCCn2ccn(CCCOc3ccc(C(=N)N)cc3)c2=N)cc1 [compound 159] | ≥ 75 | ≥ 75 | – | ≥ 75
N=C(N)NCCCCCCCNC(=N)NCCCCOc1ccc(C2=NCCCN2)cc1 [compound 202] | ≥ 75 | ≥ 75 | – | ≥ 75
N=C(N)c1ccc(OCCCNC(=Nc2ccccc2)NCCCOc2ccc(C(=N)N)cc2)cc1 [compound 63, 4-[3-[[N-[3-(4-carbamimidoylphenoxy)propyl]-N′-phenyl-carbamimidoyl]amino]propoxy]benzamidine] | ≥ 75 | ≥ 75 | – | –
